One experiment addresses AC8 (Homo sapiens, UniProt P40145). Description: cAMP accumulation (HTRF) in HEK cells stably expressing AC8, stimulated with A23187. It counts as cell-based. Details: expressed in transfected cells; host or cells: HEK cells stably expressing AC8 (HEK-AC8), hygromycin B selection. The conditions noted are these: Table 1; for IC50: HEK-AC8 cells, A23187-stimulated cAMP accumulation; for Max AC8 Inh (%): maximum inhibition of AC8. The protocol:
(§1) The primary technology we employed to measure cAMP accumulation was a homogenous time-resolved fluorescence (HTRF) assay, the same technology utilized in the primary screen. […]
(§2) Briefly, cryopreserved cells were thawed, resuspended in optiMEM (Life Technologies), and plated in white, flat bottom, low-volume, tissue culture-treated 384 well plates (PerkinElmer, Shelton, Conn.). Plates with cells were incubated in a 37° C. humidified incubator for 1 h. Inhibitors were added and plates were incubated at room temperature for 30 min followed by the addition of AC stimulants in the presence of 500 μM IBMX. Cells were incubated at room temperature for 1 h and cAMP accumulation was measured using Cisbio's cAMP kit (Cisbio Bioassays, Bedford, Mass.) according to the manufacturer's instructions.
A general note: cAMP levels reflect the balance of adenylyl cyclase and phosphodiesterase activity.

The next experiment deals with AC1 (Homo sapiens, UniProt Q08828). Description: cAMP accumulation (HTRF) in HEK cells stably expressing AC1, stimulated with A23187. It counts as cell-based. Also on record: expressed in transfected cells; host or cells: HEK cells stably expressing AC1 (HEK-AC1), G418 selection. As for the experimental part: The screen was carried out using HEK cells stably expressing AC1 (HEK-AC1) and cyclic AMP accumulation was stimulated using the Ca^2+ ionophore, A23187 to selectively activate AC1. […]
AC1, sequence (Q08828 whole entry): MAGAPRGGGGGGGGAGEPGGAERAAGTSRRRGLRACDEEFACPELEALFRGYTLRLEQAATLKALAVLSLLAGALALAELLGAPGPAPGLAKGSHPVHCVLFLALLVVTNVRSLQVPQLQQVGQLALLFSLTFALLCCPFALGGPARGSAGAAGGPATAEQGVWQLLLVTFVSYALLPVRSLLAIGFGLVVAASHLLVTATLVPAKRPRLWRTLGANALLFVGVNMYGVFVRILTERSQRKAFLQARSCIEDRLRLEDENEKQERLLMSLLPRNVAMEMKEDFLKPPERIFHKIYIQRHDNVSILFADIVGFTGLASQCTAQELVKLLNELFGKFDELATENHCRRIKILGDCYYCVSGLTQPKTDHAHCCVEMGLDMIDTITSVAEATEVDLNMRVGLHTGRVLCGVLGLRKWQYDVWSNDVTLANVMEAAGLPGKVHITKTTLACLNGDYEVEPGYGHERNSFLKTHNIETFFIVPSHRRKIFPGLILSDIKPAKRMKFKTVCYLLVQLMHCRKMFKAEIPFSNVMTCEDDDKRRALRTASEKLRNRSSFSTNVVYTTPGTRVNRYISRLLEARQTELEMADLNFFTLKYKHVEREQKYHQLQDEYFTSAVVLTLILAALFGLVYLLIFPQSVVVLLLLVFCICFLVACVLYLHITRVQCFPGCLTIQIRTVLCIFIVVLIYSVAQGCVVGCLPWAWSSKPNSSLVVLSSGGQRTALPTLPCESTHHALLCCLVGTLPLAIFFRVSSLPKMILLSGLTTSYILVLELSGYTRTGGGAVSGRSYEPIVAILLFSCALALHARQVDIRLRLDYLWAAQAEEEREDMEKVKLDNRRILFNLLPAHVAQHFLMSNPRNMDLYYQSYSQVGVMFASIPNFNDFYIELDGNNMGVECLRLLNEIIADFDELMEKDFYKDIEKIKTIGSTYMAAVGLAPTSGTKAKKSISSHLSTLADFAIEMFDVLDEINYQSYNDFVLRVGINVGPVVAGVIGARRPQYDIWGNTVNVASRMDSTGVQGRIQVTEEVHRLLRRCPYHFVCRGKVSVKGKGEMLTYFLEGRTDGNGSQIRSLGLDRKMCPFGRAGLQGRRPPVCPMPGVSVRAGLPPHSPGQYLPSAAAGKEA
as §1, §2

[1] abbreviates: Table 1, HEK-AC1 cells, A23187-stimulated cAMP accumulation, read-out: AC1 IC50.

Structures are written as SMILES. Like-named read-outs stand apart in the source and are kept apart here.

AC8, sequence (P40145 whole entry, species assumed): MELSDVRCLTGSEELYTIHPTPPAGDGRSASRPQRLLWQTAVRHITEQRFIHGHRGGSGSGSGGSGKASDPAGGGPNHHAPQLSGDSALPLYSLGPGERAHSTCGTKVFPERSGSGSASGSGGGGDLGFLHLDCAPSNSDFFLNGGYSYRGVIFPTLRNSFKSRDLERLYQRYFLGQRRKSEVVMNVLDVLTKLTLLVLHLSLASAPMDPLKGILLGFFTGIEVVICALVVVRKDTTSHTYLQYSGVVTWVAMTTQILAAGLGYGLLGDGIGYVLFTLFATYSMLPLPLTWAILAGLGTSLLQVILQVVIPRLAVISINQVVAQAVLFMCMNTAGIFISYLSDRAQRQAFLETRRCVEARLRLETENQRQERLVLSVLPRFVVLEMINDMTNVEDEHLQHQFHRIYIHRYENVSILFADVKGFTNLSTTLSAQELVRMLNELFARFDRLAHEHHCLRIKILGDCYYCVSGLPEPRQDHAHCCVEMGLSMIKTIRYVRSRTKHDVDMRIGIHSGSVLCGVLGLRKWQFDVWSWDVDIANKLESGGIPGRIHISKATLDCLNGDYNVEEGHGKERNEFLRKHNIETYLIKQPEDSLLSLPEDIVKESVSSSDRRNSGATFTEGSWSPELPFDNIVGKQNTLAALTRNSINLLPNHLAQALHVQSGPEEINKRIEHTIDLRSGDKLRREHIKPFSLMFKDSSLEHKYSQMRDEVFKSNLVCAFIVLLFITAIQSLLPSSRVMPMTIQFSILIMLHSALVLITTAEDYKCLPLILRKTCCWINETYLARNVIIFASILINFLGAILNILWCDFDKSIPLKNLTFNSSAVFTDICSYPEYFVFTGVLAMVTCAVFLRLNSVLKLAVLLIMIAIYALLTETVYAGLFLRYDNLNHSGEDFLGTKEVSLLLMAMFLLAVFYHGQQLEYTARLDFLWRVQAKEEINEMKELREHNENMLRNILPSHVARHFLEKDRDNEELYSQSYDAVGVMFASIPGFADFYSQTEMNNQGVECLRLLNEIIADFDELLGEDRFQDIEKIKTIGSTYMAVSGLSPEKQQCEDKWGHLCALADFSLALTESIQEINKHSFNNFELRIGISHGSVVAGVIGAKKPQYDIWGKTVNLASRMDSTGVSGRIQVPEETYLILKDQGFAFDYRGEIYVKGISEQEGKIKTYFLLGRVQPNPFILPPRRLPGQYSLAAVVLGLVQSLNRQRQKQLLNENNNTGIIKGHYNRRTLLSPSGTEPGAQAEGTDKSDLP

Regarding `CCc1cc(=O)[nH]c(-n2nc(C)cc2NC(=O)c2cccc(C(C)C)c2)n1` [AC10087, N-(1-(6-ethyl-4-oxo-1,4-dihydropyrimidin-2-yl)-3-methyl-1H-pyrazol-5-yl)-3-isopropylbenzamide], the results for the IC50 on AC8 and at AC1 (setting [1]) were 24 µM and 0.4 µM, respectively. At AC8, the “Max AC8 Inh (%)” value is reported as 28%.

Take `CCc1cc(=O)[nH]c(-n2nc(C)cc2NC(=O)c2ccc(OC)cc2)n1` [AC10076, N-(1-(6-ethyl-4-oxo-1,4-dihydropyrimidin-2-yl)-3-methyl-1H-pyrazol-5-yl)-4-methoxybenzamide]: at AC8, the IC50 amounted to 33 µM and the “Max AC8 Inh (%)” value is reported as 0%.

In the case of `CCc1cc(=O)[nH]c(-n2nc(C)cc2NC(=O)c2ccccc2CC)n1` [AC10074, 2-ethyl-N-(1-(6-ethyl-4-oxo-1,4-dihydropyrimidin-2-yl)-3-methyl-1H-pyrazol-5-yl)benzamide], at AC8, the IC50 was determined as 50 µM and the “Max AC8 Inh (%)” value was 21%. Moreover, at AC1 (setting [1]), the IC50 was found to be 2.8 µM.

As to `CCc1cc(=O)[nH]c(-n2nc(C)cc2NC(=O)c2ccccc2)n1` [AC10068, N-(1-(6-ethyl-4-oxo-1,4-dihydropyrimidin-2-yl)-3-methyl-1H-pyrazol-5-yl)benzamide], the “Max AC8 Inh (%)” value at AC8 amounted to 0%. In addition, on AC1 (setting [1]), the IC50 was determined as 2.7 µM.

For `CCc1cc(=O)[nH]c(-n2nc(C)cc2NC(=O)c2ccc(OCOC)cc2)n1` [AC10071, N-(1-(6-ethyl-4-oxo-1,4-dihydropyrimidin-2-yl)-3-methyl-1H-pyrazol-5-yl)-4-(methoxymethoxy)benzamide], the IC50 against AC8 was determined as 23 µM; on AC1 (setting [1]) it was 3.2 µM.

Take `CCc1cc(=O)[nH]c(-n2nc(C)cc2NC(=O)c2ccco2)n1` [AC10069, N-(1-(6-ethyl-4-oxo-1,4-dihydropyrimidin-2-yl)-3-methyl-1H-pyrazol-5-yl)furan-2-carboxamide]: the “Max AC8 Inh (%)” value at AC8 was determined as 20%. In addition, on AC1 (setting [1]), the IC50 was determined as 6.1 µM.

Regarding `CCc1cc(=O)[nH]c(-n2nc(C)cc2NC(=O)c2ccccn2)n1` [AC10093, N-(1-(6-ethyl-4-oxo-1,4-dihydropyrimidin-2-yl)-3-methyl-1H-pyrazol-5-yl)picolinamide], at AC8, the IC50 came out at 15 µM and the “Max AC8 Inh (%)” value was found to be 46%.

Take `CCc1cc(=O)[nH]c(-n2nc(C)cc2NC(=O)c2cccc(C)c2)n1` [AC10079, N-(1-(6-ethyl-4-oxo-1,4-dihydropyrimidin-2-yl)-3-methyl-1H-pyrazol-5-yl)-3-methylbenzamide]: the IC50 on AC8 was 27 µM; against AC1, 0.4 µM. In addition, on AC8, the “Max AC8 Inh (%)” value is given as 27%.

With `CCc1ccc(C(=O)Nc2cc(C)nn2-c2nc(CC)cc(=O)[nH]2)cc1` [AC10082, 4-ethyl-N-(1-(6-ethyl-4-oxo-1,4-dihydropyrimidin-2-yl)-3-methyl-1H-pyrazol-5-yl)benzamide], at AC8, the 50% inhibitory concentration (IC50) was 37 µM and the “Max AC8 Inh (%)” value was determined as 19%. Also, the IC50 at AC1 (setting [1]) was 0.5 µM.

For `CCc1cc(=O)[nH]c(-n2nc(C)cc2NC(=O)c2cccc(SC)c2)n1` [AC10088, N-(1-(4-ethyl-6-oxo-1,6-dihydropyrimidin-2-yl)-3-methyl-1H-pyrazol-5-yl)-3-(methylthio)benzamide], on AC8, the IC50 worked out at 9.7 µM and the “Max AC8 Inh (%)” value is recorded as 52%. For the same molecule, on AC1 (setting [1]), the half-inhibitory concentration (IC50) came to 0.4 µM.

As to `CCc1cc(=O)[nH]c(-n2nc(C)cc2NC(=O)c2cccc(OC)c2)n1` [AC10073, N-(1-(6-ethyl-4-oxo-1,4-dihydropyrimidin-2-yl)-3-methyl-1H-pyrazol-5-yl)-3-methoxybenzamide], the “Max AC8 Inh (%)” value on AC8 turned out to be 5%. This molecule yielded an IC50 on AC1 of 1 µM.

As to `CCc1cc(=O)[nH]c(-n2nc(C)cc2NC(=O)Cc2cccc(C)c2)n1` [AC10075, N-(1-(6-ethyl-4-oxo-1,4-dihydropyrimidin-2-yl)-3-methyl-1H-pyrazol-5-yl)-2-(m-tolyl)acetamide], the IC50 stood at 50 µM against AC8 and 10 µM at AC1 (setting [1]). Also, at AC8, the “Max AC8 Inh (%)” value is listed as 59%.

With `CCc1cc(=O)[nH]c(-n2nc(C)cc2NC(=O)c2ccc(F)cc2)n1` [AC10092, N-(1-(6-ethyl-4-oxo-1,4-dihydropyrimidin-2-yl)-3-methyl-1H-pyrazol-5-yl)-4-fluorobenzamide], at AC8, the IC50 worked out at 14 µM and the “Max AC8 Inh (%)” value was determined as 52%. On AC1 (setting [1]), the IC50 stood at 0.9 µM.

Consider `CCc1cc(=O)[nH]c(-n2nc(C)cc2NC(=O)c2ccccc2C)n1` [AC10077, N-(1-(6-ethyl-4-oxo-1,4-dihydropyrimidin-2-yl)-3-methyl-1H-pyrazol-5-yl)-2-methylbenzamide], for which the “Max AC8 Inh (%)” value at AC8 is 11%. On AC1 (setting [1]), the IC50 is 2.4 µM.

On to `CCc1cc(=O)[nH]c(-n2nc(C)cc2NC(=O)c2cccc(Cl)c2)n1` [AC10090, 3-chloro-N-(1-(6-ethyl-4-oxo-1,4-dihydropyrimidin-2-yl)-3-methyl-1H-pyrazol-5-yl)benzamide], for which, on AC8, the IC50 came out at 6.9 µM and the “Max AC8 Inh (%)” value turned out to be 48%. The IC50 on AC1 (setting [1]) was determined as 0.4 µM.

As for `CCc1cc(=O)[nH]c(-n2nc(C)cc2NC(=O)c2ccc(Cl)cc2)n1` [AC10058, 4-chloro-N-(1-(6-ethyl-4-oxo-1,4-dihydropyrimidin-2-yl)-3-methyl-1H-pyrazol-5-yl)benzamide], on AC8, the IC50 came out at 9.5 µM and the “Max AC8 Inh (%)” value was 32%. Besides, the IC50 at AC1 (setting [1]) is 0.3 µM.

On to `CCc1cc(=O)[nH]c(-n2nc(C)cc2NC(=O)c2ccccc2F)n1` [AC10048, N-(1-(6-ethyl-4-oxo-1,4-dihydropyrimidin-2-yl)-3-methyl-1H-pyrazol-5-yl)-2-fluorobenzamide], for which the “Max AC8 Inh (%)” value at AC8 came to 46%. Further, at AC1 (setting [1]), the IC50 came out at 1.5 µM.

Turning to `CCc1cccc(C(=O)Nc2cc(C)nn2-c2nc(CC)cc(=O)[nH]2)c1` [AC10081, 3-ethyl-N-(1-(6-ethyl-4-oxo-1,4-dihydropyrimidin-2-yl)-3-methyl-1H-pyrazol-5-yl)benzamide], at AC8, the “Max AC8 Inh (%)” value is 12%. Besides, the IC50 at AC1 (setting [1]) came out at 0.4 µM.

As for `CCc1cc(=O)[nH]c(-n2nc(C)cc2NC(=O)c2cccc(F)c2)n1` [AC10091, N-(1-(6-ethyl-4-oxo-1,4-dihydropyrimidin-2-yl)-3-methyl-1H-pyrazol-5-yl)-3-fluorobenzamide], on AC8, the IC50 was 12 µM and the “Max AC8 Inh (%)” value was 55%. Besides, the IC50 at AC1 (setting [1]) was 1.2 µM.

Take `CCc1cc(=O)[nH]c(-n2nc(C)cc2NC(=O)c2cccc(C(F)(F)F)c2)n1` [AC10089, N-(1-(4-ethyl-6-oxo-1,6-dihydropyrimidin-2-yl)-3-methyl-1H-pyrazol-5-yl)-3-(trifluoromethyl)benzamide]: at AC8, the IC50 came to 18 µM and the “Max AC8 Inh (%)” value was found to be 41%. The IC50 at AC1 (setting [1]) was determined as 0.7 µM.

With `CCc1cc(=O)[nH]c(-n2nc(C)cc2NC(=O)c2ccc(C)cc2)n1` [AC10080, N-(1-(6-ethyl-4-oxo-1,4-dihydropyrimidin-2-yl)-3-methyl-1H-pyrazol-5-yl)-4-methylbenzamide], at AC8, it took 48 µM to reach half-maximal inhibition (IC50) and the “Max AC8 Inh (%)” value was 27%. Besides, the IC50 at AC1 (setting [1]) turned out to be 0.7 µM.

Usually IC50 stands for the midpoint of a concentration-inhibition curve.

The record behind these values is patent US20230250084A1, “PYRAZOLYL PYRIMIDINONE COMPOUNDS AND THE USES THEREOF” (Purdue Research Foundation, priority 2019, published 2023).
